pIC50: −log10 of the molar value.

For experiment [1], the target named is endogenous, cell-bound CD73 on SK-MEL-28 cells (Homo sapiens (Human), UniProt P21589). The experiment is described as follows: Inhibition of endogenous, cell-bound CD73 enzyme activity in SK-MEL-28 cells (AMP, Malachite Green). It counts as cell-based. Particulars: 100 μM AMP, 30 minutes at room temperature. The protocol:
The day before the experiment, 5000 cells were plated per well in a 96-well plate. Cells were washed twice with 200 μL reaction buffer (20 mM HEPES, pH 7.4, 125 mM NaCl, 1 mM KCl, 2 mM MgCl2, 10 mM glucose) to remove residual inorganic phosphate. After washing, assays contained serial dilutions of test compounds and 100 μM of AMP in a total volume of 200 μL reaction buffer, with a final DMSO concentration ≤0.5%. After 30 minutes at room temperature, supernatant was removed from the cells. […] The concentration of inorganic phosphate was determined using a phosphate standard curve to determine IC50.

For the next experiment, the target named is recombinant CD73 (Homo sapiens (Human), UniProt P21589). Put plainly: Inhibition of the CD73 enzyme in vitro (soluble recombinant CD73, AMP, Malachite Green). It counts as biochemical. Particulars: recombinant CD73 0.5 nM, AMP 50 μM, 30 minutes at room temperature. The protocol: The concentration of inorganic phosphate was determined using a phosphate standard curve.
Sequence of recombinant CD73 (P21589 27-547): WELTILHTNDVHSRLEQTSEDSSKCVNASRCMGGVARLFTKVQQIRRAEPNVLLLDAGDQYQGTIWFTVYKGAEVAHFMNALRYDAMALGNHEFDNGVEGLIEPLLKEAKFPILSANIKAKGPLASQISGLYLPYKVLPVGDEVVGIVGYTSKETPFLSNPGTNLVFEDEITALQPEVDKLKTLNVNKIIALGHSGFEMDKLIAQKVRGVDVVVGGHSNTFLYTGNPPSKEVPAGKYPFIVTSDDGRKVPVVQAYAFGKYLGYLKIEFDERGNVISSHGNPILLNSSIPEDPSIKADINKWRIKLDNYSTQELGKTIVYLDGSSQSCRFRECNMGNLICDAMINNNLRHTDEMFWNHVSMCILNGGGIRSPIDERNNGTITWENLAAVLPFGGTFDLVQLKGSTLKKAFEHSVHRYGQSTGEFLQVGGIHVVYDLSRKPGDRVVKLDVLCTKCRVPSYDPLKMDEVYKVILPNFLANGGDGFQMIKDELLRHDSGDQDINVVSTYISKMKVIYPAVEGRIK

Sequence of endogenous, cell-bound CD73 on SK-MEL-28 cells (P21589 27-574): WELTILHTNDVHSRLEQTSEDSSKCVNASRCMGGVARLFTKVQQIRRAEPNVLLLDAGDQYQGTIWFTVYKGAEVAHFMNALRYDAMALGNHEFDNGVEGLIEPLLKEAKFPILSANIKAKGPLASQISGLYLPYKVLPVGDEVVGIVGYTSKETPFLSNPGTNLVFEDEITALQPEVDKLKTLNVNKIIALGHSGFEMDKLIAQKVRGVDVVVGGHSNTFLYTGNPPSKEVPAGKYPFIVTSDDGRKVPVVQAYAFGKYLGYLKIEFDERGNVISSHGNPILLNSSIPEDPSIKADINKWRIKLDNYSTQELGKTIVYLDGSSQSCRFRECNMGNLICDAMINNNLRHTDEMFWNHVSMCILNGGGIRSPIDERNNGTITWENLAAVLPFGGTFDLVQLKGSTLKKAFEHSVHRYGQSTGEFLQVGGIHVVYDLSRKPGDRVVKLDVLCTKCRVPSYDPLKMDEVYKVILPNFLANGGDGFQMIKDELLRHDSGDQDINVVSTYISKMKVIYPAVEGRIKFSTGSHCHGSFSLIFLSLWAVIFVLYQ

For `CCOC(=O)C(Cc1ccc(OC(F)(F)F)cc1)(OC[C@H]1O[C@@H](n2cnc3c(N)nc(Cl)nc32)[C@@H](F)[C@@H]1O)C(=O)O` (single isomer, unassigned) [compound 37], the pIC50 in experiment [1] was 6.22; on recombinant CD73, 6.14.
Take `Nc1nc(Cl)nc2c1ncn2[C@@H]1O[C@H](COC(Cc2ccccc2)(C(=O)O)C(=O)O)[C@@H](O)[C@H]1N` [compound 55, 2-(((2R,3S,4R,5R)-4-amino-5-(6-amino-2-chloro-9H-purin-9-yl)-3-hydroxytetrahydrofuran-2-yl)methoxy)-2-benzylmalonic acid]: in experiment [1], the pIC50 was less than 4.30.
As for `O=C(O)C(Cc1ccccc1)(OC[C@H]1O[C@@H](n2cnc3c(O)nc(Cl)nc32)[C@@H](F)[C@@H]1O)C(=O)O` [compound 74, 2-benzyl-2-(((2R,3R,4S,5R)-5-(2-chloro-6-hydroxy-9H-purin-9-yl)-4-fluoro-3-hydroxytetrahydrofuran-2-yl)methoxy)malonic acid], the pIC50 in experiment [1] was 5.59; on recombinant CD73 it was 5.78.
Regarding `Nc1nc(Cl)nc2c1ncn2[C@@H]1O[C@H](COC(Cc2ccc(F)c(F)c2F)(C(=O)O)C(=O)O)[C@@H](O)[C@@H]1F` [compound 108], the pIC50 in experiment [1] is 6.61; on recombinant CD73, 6.98.
In the same order, the values of `O=C(O)C(Cc1ccccc1)(OC[C@H]1O[C@@H](n2cnc3c(SC4CCCC4)nc(Cl)nc32)[C@@H](F)[C@@H]1O)C(=O)O` [compound 109] are 5.72 and 6.22.
The matching figures for `Nc1nc(Cl)nc2c1ncn2[C@@H]1O[C@H](COC(Cc2ccc3c(c2)OC(F)(F)O3)(C(=O)O)C(=O)O)[C@@H](O)[C@@H]1F` [compound 110]: 6.44 and 7.18.
Consider `NC(=O)c1ccc(CC(OC[C@H]2O[C@@H](n3cnc4c(N)nc(Cl)nc43)[C@@H](F)[C@@H]2O)(C(=O)O)C(=O)O)cc1` [compound 111], for which the figures for the pIC50 (in experiment [1]; on recombinant CD73) were 6.74 and 6.85, respectively.
In the same order, the values of `Nc1nc(Cl)nc2c1ncn2[C@@H]1O[C@H](COC(Cc2ccc(Cl)c(OC(F)(F)F)c2)(C(=O)O)C(=O)O)[C@@H](O)[C@@H]1F` [compound 125] are 6.08 and 6.62.
With `Nc1nc(Cl)nc2c1ncn2[C@@H]1O[C@H](COC(Cc2ccccc2F)(C(=O)O)C(=O)O)[C@@H](O)[C@@H]1F` [compound 127], the pIC50 is 6.39 in experiment [1] and 6.83 at recombinant CD73.
Turning to `Nc1nc(Cl)nc2c1ncn2[C@@H]1O[C@H](COC(Cc2ccc(Cl)c(Cl)c2)(C(=O)O)C(=O)O)[C@@H](O)[C@@H]1F` [compound 128], the pIC50 in experiment [1] was 6.08; on recombinant CD73 it was 6.59.
Take `Nc1nc(Cl)nc2c1ncn2[C@@H]1O[C@H](COC(Cc2ccccc2)(C(=O)O)C(=O)O)[C@@H](O)[C@@H]1Cl` [compound 146]: the pIC50 at recombinant CD73 is 6.74.
Still for that read-out and setting: then `CS(=O)(=O)c1ccc(CC(OC[C@H]2O[C@@H](n3cnc4c(N)nc(Cl)nc43)[C@@H](F)[C@@H]2O)(C(=O)O)C(=O)O)cc1` [compound 153], with 7.13; and `Nc1nc(Cl)nc2c1ncn2[C@@H]1O[C@H](COC(Cc2ccccc2)(C(=O)O)C(=O)O)[C@@H](O)[C@@H]1F` [compound 169], with 6.92.
Consider `Nc1nc(Cl)nc2c1ncn2[C@@H]1O[C@H](COC(Cc2ccc(C(=O)O)cc2)(C(=O)O)C(=O)O)[C@@H](O)[C@@H]1F` [compound 171], for which the pIC50 at recombinant CD73 was 6.94.
For the compound `CCOC(=O)C(Cc1ccccc1)(OC[C@H]1O[C@@H](n2cnc3c(N)nc(Cl)nc32)[C@H](O)[C@@H]1O)c1nn[nH]n1` (stereo partly drawn) [compound 193], the pIC50 at recombinant CD73 is less than 4.30.

The term pIC50 denotes −log10 of the IC50, conventionally taken in molar units.

For the origin of these results see patent publication US11034715B2, “Ectonucleotidase inhibitors and methods of use thereof” (Calithera Biosciences, Inc., priority 2016, dated 2021).
